According to US4049809A, “Solution of a oxazepine for oral or parenteral administration” (priority 1976, dated 1977):
≈ marks a conversion by molar mass, not a printed value. Where two headings read alike, the source gives them in different places. Each block holds one molecule with its values, some of them ahead of it.

Experiments:
[1] = Solubility and stability in water and near neutral/basic liquids; assay type: physicochemical
[2] = Toxicity of hydrolysis product (statement)
[3] = Stability of solutions: lack of precipitation of the hydrolysis product; assay type: physicochemical; conditions: in the new solutions; below this concentration
From the text: (§1) The favorable stability of the oral and parenteral solutions of this invention have been established in numerous tests. The criterion of stability being the lack of precipitation of the hydroylsis product 2-chloro-dibenz[b,f][1,4]oxazepin-11(1OH)-one. […]

[4] = assay type: physicochemical; conditions: 10 mg/ml, pH 6.0, 15 months
From the text: as §1

[5] = Second stability study, parenteral solution 15 mg/ml; assay type: physicochemical; conditions: 70% propylene glycol, pH 6.0
From the text: as §1

[6] = Third stability study, parenteral solution 20 mg/ml; assay type: physicochemical; conditions: 20 mg/ml parenteral solution
Description: The favorable stability of the oral and parenteral solutions of this invention have been established in numerous tests. The criterion of stability being the lack of precipitation of the hydroylsis product 2-chloro-dibenz[b,f][1,4]oxazepin-11(1OH)-one. […] Three such studies follow:
In the third test a parenteral solution of the active ingredient at a concentration of 20 mg/ml was prepared as described in the second stability study.

[7] = Crystallization/solubility behaviour with and without Polysorbate 80; assay type: physicochemical

Compound: O=C1Nc2ccccc2Oc2ccc(Cl)cc21 [2-chloro-dibenz[b,f][1,4]oxazepin-11(10H)-one]
Solubility in water [1]: extremely insoluable
Toxicity [2]: nontoxic
Concentration at which crystallization of hydrolysis product does not occur [3]: below 500 mcg/ml

Hydrolysis Product ([4]; 50% propylene glycol): 120 µg/mL
Hydrolysis Product ([4]; 60% propylene glycol): 110 µg/mL
Hydrolysis Product ([4]; 70% propylene glycol): 100 µg/mL
Hydrolysis Product ([5]; 42° C, 1 Month): 124 µg/mL
Potency ([5]; 42° C, 1 Month): 16.0 mg/mL (≈ 48.8 mM)
Hydrolysis Product ([5]; 42° C, 2 Months): 192 µg/mL
Potency ([5]; 42° C, 2 Months): 14.5 mg/mL (≈ 44.2 mM)
Hydrolysis Product ([5]; 42° C, 4 Months): 340 µg/mL
Potency ([5]; 42° C, 4 Months): 15.5 mg/mL (≈ 47.3 mM)
Hydrolysis Product ([5]; 56° C, 1 Month): 320 µg/mL
Potency ([5]; 56° C, 1 Month): 16.0 mg/mL (≈ 48.8 mM)
Hydrolysis Product ([5]; 56° C, 2 Months): 580 µg/mL
Potency ([5]; 56° C, 2 Months): 14.5 mg/mL (≈ 44.2 mM)
Hydrolysis Product ([5]; 56° C, 2 Weeks): 163 µg/mL
Potency ([5]; 56° C, 2 Weeks): 15.3 mg/mL (≈ 46.7 mM)
Hydrolysis Product ([5]; 70° C, 1 Week): 370 µg/mL
Physical Appearance ([5]; 70° C, 1 Week): Precipitate
Potency ([5]; 70° C, 1 Week): 15.0 mg/mL (≈ 45.8 mM)
Hydrolysis Product ([5]; 70° C, 2 Weeks): 467 µg/mL
Potency ([5]; 70° C, 2 Weeks): 14.8 mg/mL (≈ 45.1 mM)
Hydrolysis Product ([5]; Fresh): 26 µg/mL
Physical Appearance ([5]; Fresh): Clear
Potency ([5]; Fresh): 16.0 mg/mL (≈ 48.8 mM)
Hydrolysis Product ([5]; Room Temp., 2 Months): 55 µg/mL
Potency ([5]; Room Temp., 2 Months): 15.4 mg/mL (≈ 47 mM)
Hydrolysis Product ([5]; Room Temp., 4 Months): 67 µg/mL
Potency ([5]; Room Temp., 4 Months): 15.6 mg/mL (≈ 47.6 mM)
Hydrolysis Product ([5]; Room Temp., 6 Months): 94 µg/mL
Potency ([5]; Room Temp., 6 Months): 15.6 mg/mL (≈ 47.6 mM)
Hydrolysis Product ([5]; Room Temp., 11 Months): 142 µg/mL
Potency ([5]; Room Temp., 11 Months): 15.4 mg/mL (≈ 47 mM)
Hydrolysis Product ([5]; Room Temp., 13 Months): 144 µg/mL
Potency ([5]; Room Temp., 13 Months): 15.1 mg/mL (≈ 46.1 mM)
Hydrolysis Product ([5]; Room Temp., 18 Months): 260 µg/mL
Potency ([5]; Room Temp., 18 Months): 14.3 mg/mL (≈ 43.6 mM)
Hydrolysis Product ([6]; 42° C, 1 Month): 146 µg/mL
Potency ([6]; 42° C, 1 Month): 21.8 mg/mL (≈ 66.5 mM)
Hydrolysis Product ([6]; 42° C, 2 Months): 232 µg/mL
Potency ([6]; 42° C, 2 Months): 20.5 mg/mL (≈ 62.5 mM)
Hydrolysis Product ([6]; 42° C, 4 Months): 436 µg/mL
Potency ([6]; 42° C, 4 Months): 20.2 mg/mL (≈ 61.6 mM)
Hydrolysis Product ([6]; 56° C, 1 Month): 374 µg/mL
Potency ([6]; 56° C, 1 Month): 20.6 mg/mL (≈ 62.8 mM)
Hydrolysis Product ([6]; 56° C, 2 Months): 732 µg/mL
Potency ([6]; 56° C, 2 Months): 19.4 mg/mL (≈ 59.2 mM)
Hydrolysis Product ([6]; 56° C, 2 Weeks): 185 µg/mL
Potency ([6]; 56° C, 2 Weeks): 21.0 mg/mL (≈ 64.1 mM)
Hydrolysis Product ([6]; 70° C, 1 Week): 480 µg/mL
Physical Appearance ([6]; 70° C, 1 Week): Precipitate
Potency ([6]; 70° C, 1 Week): 20.7 mg/mL (≈ 63.1 mM)
Hydrolysis Product ([6]; 70° C, 2 Weeks): 623 µg/mL
Potency ([6]; 70° C, 2 Weeks): 20.6 mg/mL (≈ 62.8 mM)
Hydrolysis Product ([6]; Fresh): 33.0 µg/mL
Physical Appearance ([6]; Fresh): Clear
Potency ([6]; Fresh): 21.6 mg/mL (≈ 65.9 mM)
Hydrolysis Product ([6]; Room Temp., 2 Months): 62.7 µg/mL
Potency ([6]; Room Temp., 2 Months): 21.1 mg/mL (≈ 64.4 mM)
Hydrolysis Product ([6]; Room Temp., 4 Months): 78 µg/mL
Potency ([6]; Room Temp., 4 Months): 22.3 mg/mL (≈ 68 mM)
Hydrolysis Product ([6]; Room Temp., 6 Months): 116 µg/mL
Potency ([6]; Room Temp., 6 Months): 20.8 mg/mL (≈ 63.5 mM)
Hydrolysis Product ([6]; Room Temp., 11 Months): 160 µg/mL
Potency ([6]; Room Temp., 11 Months): 20.7 mg/mL (≈ 63.1 mM)
Hydrolysis Product ([6]; Room Temp., 13 Months): 184 µg/mL
Potency ([6]; Room Temp., 13 Months): 20.6 mg/mL (≈ 62.8 mM)
Hydrolysis Product ([6]; Room Temp., 18 Months): 340 µg/mL
Potency ([6]; Room Temp., 18 Months): 20.5 mg/mL (≈ 62.5 mM)
Solubility in liquids having a basic or near neutral pH ([1]; basic or near neutral pH): low solubility
Solubility in water [1]: low solubility
Effect of Polysorbate 80 on solubility level in 70% aqueous propylene glycol ([7]; 70% aqueous propylene glycol with Polysorbate 80): raises the solubility level
Effect of Polysorbate 80 on crystallization during intramuscular administration ([7]; 70% aqueous propylene glycol with Polysorbate 80 (about 2% to about 10%)): eliminates the crystallization
Crystallization when parenterally administered to body fluids ([7]; body fluids, pH about 7.0): exhibits a tendency to crystallize
Crystallization from neutral or basic media ([7]; neutral or basic media): crystallizes from neutral or basic media
Precipitation on dilution with non-acidic foods or beverages ([7]; oral concentrate without polysorbate 80): precipitates on dilution
Compound: CN1CCN(C2=Nc3ccccc3Oc3ccc(Cl)cc32)CC1 [2-chloro-11-(4-methyl-1-piperazinyl)-dibenz[b,f][1,4]oxazepine]
